Values after ≈ are worked out from the molar mass of the structure shown. Blank lines part the entries; values can stand above or below the compound they belong to.
Legend:
Test in all cases: ≥ marks a high value that may be exact or a test limit, other limits are often not marked, values filed in µg/mL are converted to µM
[1] = system: Staphylococcus aureus ATCC 29213
[2] = system: Escherichia coli ATCC 25922
Escherichia coli = system: Escherichia coli
[3] = system: Pseudomonas aeruginosa ATCC 27853
[4] = system: Staphylococcus aureus ATCC 25923

MIC [1]: 10 µM (≈ 17.8 µg/mL)
MIC [2]: 5 µM (≈ 8.89 µg/mL)
SMILES: CC(C)C[C@H](NC(=O)[C@H](CCCCN)NC(=O)[C@H](CC(C)C)NC(=O)[C@H](CC(C)C)NC(=O)[C@H](CCCCN)NC(=O)[C@H](CCCCN)NC(=O)[C@H](CC(C)C)NC(=O)[C@H](CC(C)C)NC(=O)[C@H](CCCCN)NC(=O)[C@H](CC(C)C)NC(=O)[C@H](CC(C)C)NC(=O)[C@H](CCCCN)NC(=O)[C@H](CCCCN)NC(=O)[C@H](C)N)C(=O)N[C@@H](C)C(=O)NCC(=O)O [AKKLLKLLKKLLKLAG]

MIC (Escherichia coli): 2.5 µM (≈ 7.21 µg/mL)
SMILES: CC[C@H](C)[C@H](NC(=O)[C@H](Cc1c[nH]c2ccccc12)NC(=O)[C@H](CCCCN)NC(=O)[C@@H]1CCCN1C(=O)[C@H](CC(C)C)NC(=O)[C@H](CCCCN)NC(=O)CNC(=O)[C@@H](NC(=O)[C@@H](NC(=O)[C@H](CO)NC(=O)[C@@H](NC(=O)[C@@H](NC(=O)[C@H](CCCCN)NC(=O)[C@H](CCC(N)=O)NC(=O)[C@H](C)N)[C@@H](C)CC)[C@@H](C)CC)[C@@H](C)O)[C@@H](C)CC)C(=O)N[C@H](C(=O)N[C@@H](CCCCN)C(=O)N[C@H](C(=O)N[C@H](C(=O)N[C@@H](CC(N)=O)C(=O)N[C@@H](CCCCN)C(=O)N[C@@H](Cc1ccccc1)C(=O)N[C@H](C(=O)N[C@@H](CCCCN)C(=O)N[C@@H](CCCCN)C(=O)O)[C@@H](C)O)C(C)C)[C@@H](C)O)[C@@H](C)CC [AQKIISTIGKLPKWIIKTVNKFTKK]

MIC [1]: > 293 µM
MIC [2]: > 293 µM
SMILES: CC[C@H](C)[C@H](NC(=O)CNC(=O)[C@H](CC(C)C)NC(=O)[C@@H](NC(=O)[C@@H]1CCCN1C(=O)[C@H](CC(N)=O)NC(=O)[C@H](CC(C)C)NC(=O)[C@H](CC(C)C)NC(=O)CNC(=O)[C@H](CC(N)=O)NC(=O)[C@H](CC(C)C)NC(=O)[C@H](CC(C)C)NC(=O)[C@@H](N)CC(=O)O)C(C)C)C(=O)N[C@@H](C)C(=O)N[C@@H](CC(N)=O)C(=O)NCC(=O)N[C@@H](CC(C)C)C(=O)N[C@H](C(=O)NCC(=O)NCC(=O)N[C@@H](CC(C)C)C(=O)N[C@H](C(=O)N[C@@H](CCCCN)C(=O)N[C@@H](CCCCN)C(N)=O)C(C)C)[C@@H](C)O [DLLNGLLNPVLGIANGLTGGLVKK]

MIC [3]: 130 µM (≈ 200 µg/mL)
MIC [2]: 32.6 µM (≈ 50 µg/mL)
MIC [4]: 32.6 µM (≈ 50 µg/mL)
SMILES: CSCC[C@H](NC(=O)[C@H](CCCN=C(N)N)NC(=O)[C@H](Cc1c[nH]c2ccccc12)NC(=O)[C@H](C)NC(=O)[C@H](Cc1c[nH]c2ccccc12)NC(=O)[C@H](CCCN=C(N)N)NC(=O)[C@H](CCCN=C(N)N)NC(=O)[C@H](C)NC(=O)[C@H](CCCCN)NC(=O)[C@@H](N)Cc1ccccc1)C(=O)N[C@@H](CCCCN)C(=O)O [FKARRWAWRMK]

MIC [1]: > 40 µM
MIC [2]: 10 µM (≈ 16.8 µg/mL)
SMILES: CC[C@H](C)[C@H](NC(=O)[C@H](CCCN=C(N)N)NC(=O)[C@H](CCC(N)=O)NC(=O)[C@@H](NC(=O)[C@@H](NC(=O)[C@H](CCCN=C(N)N)NC(=O)[C@H](CCCCN)NC(=O)[C@@H](N)Cc1ccccc1)[C@@H](C)CC)C(C)C)C(=O)N[C@@H](CCCCN)C(=O)N[C@@H](CC(=O)O)C(=O)N[C@@H](Cc1ccccc1)C(=O)N[C@@H](C)C(=O)N[C@@H](CCCN=C(N)N)C(=O)O [FKRIVQRIKDFAR]

MIC [1]: > 33.6 µM
SMILES: CC[C@H](C)[C@H](NC(=O)CNC(=O)[C@H](CCCCN)NC(=O)[C@H](CCCCN)NC(=O)[C@H](CCCCN)NC(=O)[C@@H](N)CCCCN)C(=O)NCC(=O)N[C@@H](CCCCN)C(=O)N[C@@H](Cc1ccccc1)C(=O)N[C@@H](CC(C)C)C(=O)N[C@@H](Cc1cnc[nH]1)C(=O)N[C@@H](CO)C(=O)N[C@@H](C)C(=O)N[C@@H](CCCCN)C(=O)N[C@@H](CCCCN)C(=O)N[C@@H](Cc1ccccc1)C(=O)NCC(=O)N[C@@H](CCCCN)C(=O)N[C@@H](C)C(=O)N[C@@H](Cc1ccccc1)C(=O)N[C@H](C(=O)NCC(=O)N[C@@H](CCC(=O)O)C(=O)N[C@H](C(=O)N[C@@H](CCSC)C(=O)N[C@@H](CC(N)=O)C(=O)N[C@@H](CO)C(=O)O)[C@@H](C)CC)C(C)C [KKKKGIGKFLHSAKKFGKAFVGEIMNS]

MIC [1]: 3.54 µM (≈ 6.02 µg/mL)
MIC [2]: 10 µM (≈ 17 µg/mL)
SMILES: CC(=O)N[C@@H](CCCCN)C(=O)N[C@@H](CC(C)C)C(=O)N[C@@H](CC(C)C)C(=O)N[C@@H](CCCCN)C(=O)N[C@@H](CC(C)C)C(=O)N[C@@H](CC(C)C)C(=O)N[C@@H](CCCCN)C(=O)N1CCC[C@H]1C(=O)N[C@@H](CC(C)C)C(=O)N[C@@H](CC(C)C)C(=O)N[C@@H](CCCCN)C(=O)N[C@@H](CC(C)C)C(=O)N[C@@H](CC(C)C)C(=O)N[C@@H](CCCCN)C(N)=O [KLLKLLKPLLKLLK]

MIC [3]: > 100 µM
MIC [2]: > 100 µM
MIC [4]: > 100 µM
SMILES: CC(C)[C@H](NC(=O)[C@H](CC(=O)O)NC(=O)[C@H](CO)NC(=O)[C@H](CCCCN)NC(=O)CNC(=O)[C@H](CO)NC(=O)[C@H](CO)NC(=O)[C@H](Cc1cnc[nH]1)NC(=O)[C@@H](N)CCC(N)=O)C(=O)N[C@@H](CCCN=C(N)N)C(=O)N[C@@H](CCCN=C(N)N)C(=O)N[C@@H](Cc1c[nH]c2ccccc12)C(N)=O [QHSSGKSDVRRW]

MIC (Escherichia coli): 0.359 µM (≈ 0.699 µg/mL)
SMILES: CC(C)C[C@H](NC(=O)[C@H](CCCN=C(N)N)NC(=O)CNC(=O)CNC(=O)[C@@H](N)CCCN=C(N)N)C(=O)N[C@H]1CSSC[C@@H](C(=O)N[C@H](C(=O)O)[C@@H](C)O)NC(=O)[C@H](C(C)C)NC(=O)[C@@H]2CSSC[C@H](NC(=O)[C@H](Cc3ccc(O)cc3)NC1=O)C(=O)N[C@@H](CCCN=C(N)N)C(=O)N[C@@H](CCCN=C(N)N)C(=O)N[C@@H](CCCN=C(N)N)C(=O)N[C@@H](Cc1ccccc1)C(=O)N2 [RGGRLCYCRRRFCVCT]

MIC [3]: 6.09 µM (≈ 7.49 µg/mL)
MIC [2]: 8.12 µM (≈ 9.99 µg/mL)
MIC [4]: 2.03 µM (≈ 2.5 µg/mL)
SMILES: NC(=O)[C@H](CCCN=C(N)N)NC(=O)[C@H](Cc1c[nH]c2ccccc12)NC(=O)[C@H](Cc1c[nH]c2ccccc12)NC(=O)[C@H](CCCN=C(N)N)NC(=O)[C@H](Cc1c[nH]c2ccccc12)NC(=O)[C@H](Cc1c[nH]c2ccccc12)NC(=O)[C@@H](N)CCCN=C(N)N [RWWRWWR]

Second part, the compound before the results:

SMILES: CC[C@H](C)[C@H](NC(=O)[C@H](CCCN=C(N)N)NC(=O)[C@H](CCC(N)=O)NC(=O)[C@@H](NC(=O)[C@H](Cc1cnc[nH]1)NC(=O)[C@H](CCCN=C(N)N)NC(=O)[C@H](CCCCN)NC(=O)[C@@H](N)Cc1ccccc1)C(C)C)C(=O)N[C@@H](CCCCN)C(=O)N[C@@H](CC(=O)O)C(=O)N[C@@H](Cc1ccccc1)C(=O)N[C@@H](CC(C)C)C(=O)N[C@@H](CCCN=C(N)N)C(=O)O [FKRHVQRIKDFLR]
MIC [1]: > 40 µM
MIC [2]: 10 µM (≈ 17.4 µg/mL)

SMILES: CC[C@H](C)[C@H](NC(=O)CN)C(=O)NCC(=O)N[C@@H](CCCCN)C(=O)N[C@@H](Cc1ccccc1)C(=O)N[C@@H](CC(C)C)C(=O)N[C@@H](Cc1cnc[nH]1)C(=O)N[C@@H](CCCCN)C(=O)N[C@H](C(=O)N[C@@H](CCCCN)C(=O)N[C@@H](CO)C(=O)N[C@@H](Cc1ccccc1)C(=O)NCC(=O)N[C@@H](CCCCN)C(=O)N[C@@H](CO)C(=O)N[C@@H](Cc1c[nH]c2ccccc12)C(=O)N[C@H](C(=O)NCC(=O)N[C@@H](CCC(=O)O)C(=O)N[C@H](C(=O)N[C@@H](CCSC)C(=O)N[C@@H](CC(N)=O)C(=O)N[C@@H](CO)C(N)=O)[C@@H](C)CC)[C@@H](C)CC)C(C)C [GIGKFLHKVKSFGKSWIGEIMNS]
MIC [1]: 76 µM (≈ 195 µg/mL)
MIC [3]: 19 µM (≈ 48.7 µg/mL)
MIC [2]: 19 µM (≈ 48.7 µg/mL)

SMILES: NCC(=O)N[C@@H](CCCN=C(N)N)C(=O)N[C@@H](CCCN=C(N)N)C(=O)N1CCC[C@H]1C(=O)N[C@@H](CCCN=C(N)N)C(=O)N1CCC[C@H]1C(=O)N[C@@H](CCCN=C(N)N)C(=O)N1CCC[C@H]1C(=O)N[C@@H](CCCN=C(N)N)C(=O)N1CCC[C@H]1C(=O)N[C@@H](Cc1c[nH]c2ccccc12)C(=O)N[C@@H](Cc1c[nH]c2ccccc12)C(=O)N[C@@H](Cc1c[nH]c2ccccc12)C(=O)N[C@@H](Cc1c[nH]c2ccccc12)C(=O)N[C@@H](Cc1c[nH]c2ccccc12)C(=O)O [GRRPRPRPRPWWWWW]
MIC [1]: 20 µM (≈ 43.5 µg/mL)
MIC [3]: 20 µM (≈ 43.5 µg/mL)
MIC [2]: 5 µM (≈ 10.9 µg/mL)

SMILES: CC[C@H](C)[C@H](NC(=O)[C@H](Cc1ccc(O)cc1)NC(=O)[C@H](CCC(N)=O)NC(=O)[C@H](CC(C)C)NC(=O)[C@H](C)NC(=O)[C@H](CCCCN)NC(=O)[C@H](CCCCN)NC(=O)[C@H](CCSC)NC(=O)[C@H](CCCCN)NC(=O)[C@@H](N)CCCCN)C(=O)N[C@@H](CCCCN)C(=O)N[C@@H](CC(C)C)C(N)=O [KKMKKALQYIKL]
MIC [3]: > 100 µM
MIC [2]: > 100 µM

SMILES: CC(C)C[C@H](NC(=O)[C@H](CC(C)C)NC(=O)[C@H](CCCN=C(N)N)NC(=O)[C@H](CC(C)C)NC(=O)[C@H](CC(C)C)NC(=O)[C@H](CCCN=C(N)N)NC(=O)[C@H](CCCN=C(N)N)NC(=O)[C@H](CC(C)C)NC(=O)[C@H](CC(C)C)NC(=O)[C@H](CCCN=C(N)N)NC(=O)[C@H](CC(C)C)NC(=O)[C@H](CC(C)C)NC(=O)[C@H](CCCN=C(N)N)NC(=O)[C@H](CC(C)C)NC(=O)[C@H](CCCN=C(N)N)NC(=O)[C@H](CC(C)C)NC(=O)[C@H](CCCN=C(N)N)NC(=O)[C@H](CCCN=C(N)N)NC(=O)[C@@H](N)CC(C)C)C(=O)O [LRRLRLRLLRLLRRLLRLL]
MIC [3]: > 128 µM

SMILES: CC[C@H](C)[C@H](NC(=O)[C@H](CCCCN)NC(=O)[C@H](CCCCN)NC(=O)[C@@H](N)CCC(N)=O)C(=O)N[C@@H](C)C(=O)N[C@H](C(=O)N[C@@H](CCCN=C(N)N)C(=O)N[C@@H](CC(C)C)C(=O)N[C@@H](CO)C(=O)N[C@@H](C)C(=O)O)C(C)C [QKKIAVRLSA]
MIC [1]: > 57.5 µM
MIC [3]: 7.19 µM (≈ 8 µg/mL)
MIC [2]: 28.7 µM (≈ 32 µg/mL)

SMILES: CC[C@H](C)[C@H](NC(=O)[C@@H](N)Cc1ccc(O)cc1)C(=O)N[C@@H](CCCCN)C(=O)N[C@@H](CC(C)C)C(=O)N[C@@H](CC(C)C)C(=O)N[C@@H](CCCCN)C(=O)N[C@@H](CCC(=O)O)C(N)=O [YIKLLKE]
MIC [3]: > 100 µM
MIC [2]: > 100 µM

Source: DBAASP
